# Several values for one entry are separate records, joined by “and”; a condition that tells them apart may be missing. Equal entries are not always repeated.
# What was measured:
# in vivo = assay: in vivo; parameters: species or system Sprague-Dawley rats; details: Sprague-Dawley, rat, po, 3 mg/kg
# Protocol: The HPLC system consisted of a chromatographic pump (LC−20AT), an online injector (SIL−20C) equipped with a 10 μL sample loop to inject the sample, and an ultraviolet detector (SPD-M20A).
# (§1) A freely moving rat model was designed for the current study. The rats were anesthetized and immobilized on a board while undergoing computed tomography to localize the whole liver or a central area measuring 1.5 cm × 1.5 cm for the SBRT technique. For the whole liver field, the cranial margin was set 5 mm from the top of the diaphragm, and the caudal margin was set 5 mm lower than the liver margin. The whole liver was targeted for irradiation. […] Data were collected from six rats per group.
# A radiation dose of 2 Gy was considered the daily conventional EBRT dose or the off-target dose around the target that received an ablation RT dose. A dose of 9 Gy was used to simulate SBRT. […] Rats were initially anesthetized with pentobarbital (50 mg/kg, i.p.) and remained anesthetized throughout the experimental period. […]
# PK parameters, including the area under the concentration–time curve (AUC), clearance (CL), elimination half-life (t1/2), volume of distribution at steady state (Vss), and mean residence time (MRT), were calculated using the PK calculation software WinNonlin Standard Edition, Version 1.1 (Scientific Consulting, Apex, NC, USA) by a compartmental method.
# [1] = Organ distribution of lenvatinib in rats with or without liver RT; assay type: in vivo, Sprague-Dawley rats; details: rat; for concentration at 6 h: Sprague-Dawley, po, 3 mg/kg; for concentration at 6 h / Concentration of lenvatinib in spleen: 6 h after administration
# Excerpt: as §1
# A radiation dose of 2 Gy was considered the daily conventional EBRT dose or the off-target dose around the target that received an ablation RT dose. A dose of 9 Gy was used to simulate SBRT. […] Rats were initially anesthetized with pentobarbital (50 mg/kg, i.p.) and remained anesthetized throughout the experimental period. After surgery, the rats were placed in an experimental cage and allowed to recover for 1 day.
# The brain, liver, heart, spleen, lung, and kidney were collected and weighed. These collected samples were stored at −20 °C until analysis.
# The thawed organ samples were homogenized in 50% aqueous acetonitrile (the ratio of sample weight and volume was 1:5), and the homogenate was centrifuged at 13,000× g for 10 min at 4 °C. The supernatant was collected, placed in brown Eppendorf tubes, and stored at −20 °C until analysis. Briefly, each organ sample (50 μL) was combined with 150 μL of IS solution (diethylstilbestrol) for protein precipitation. Finally, 20 μL of filtrate was subjected to HPLC analysis.
# CYP3A4 = details: cited from earlier work
# [2] = RT2Gy concurrent with lenvatinib
# [3] = RT9Gy concurrent with lenvatinib
smiles,measurement,setting,value
"COc1cc2nccc(Oc3ccc(NC(=O)NC4CC4)c(Cl)c3)c2cc1C(N)=O [lenvatinib, Lenvatinib]",concentration at 60 min,in vivo,940 ng/mL
same,concentration at 6 h,"[1]; brain, Concentration of lenvatinib in brain, 3 mg/kg p.o., RT2Gy concurrent with lenvatinib",0 ng/mL
same,concentration at 6 h,"[1]; brain, Concentration of lenvatinib in brain, 3 mg/kg p.o., RT2Gy followed by lenvatinib",0 ng/mL
same,concentration at 6 h,"[1]; brain, Concentration of lenvatinib in brain, 3 mg/kg p.o., RT9Gy concurrent with lenvatinib",0 ng/mL
same,concentration at 6 h,"[1]; brain, Concentration of lenvatinib in brain, 3 mg/kg p.o., RT9Gy followed by lenvatinib",0 ng/mL
same,concentration at 6 h,"[1]; brain, Concentration of lenvatinib in brain, 3 mg/kg p.o., lenvatinib only",0 ng/mL
same,concentration at 6 h,"[1]; heart, Concentration of lenvatinib in heart, 3 mg/kg p.o., RT2Gy concurrent with lenvatinib",32 ± 40 ng/mL
same,concentration at 6 h,"[1]; heart, Concentration of lenvatinib in heart, 3 mg/kg p.o., RT2Gy followed by lenvatinib",74 ± 40 ng/mL
same,concentration at 6 h,"[1]; heart, Concentration of lenvatinib in heart, 3 mg/kg p.o., RT9Gy concurrent with lenvatinib",15 ± 40 ng/mL
same,concentration at 6 h,"[1]; heart, Concentration of lenvatinib in heart, 3 mg/kg p.o., RT9Gy followed by lenvatinib",78 ± 40 ng/mL
same,concentration at 6 h,"[1]; heart, Concentration of lenvatinib in heart, 3 mg/kg p.o., lenvatinib only",50 ± 50 ng/mL
same,concentration at 6 h,"[1]; kidney, Concentration of lenvatinib in kidney, 3 mg/kg p.o., RT2Gy concurrent with lenvatinib",113 ± 30 ng/mL
same,concentration at 6 h,"[1]; kidney, Concentration of lenvatinib in kidney, 3 mg/kg p.o., RT2Gy followed by lenvatinib",230 ± 50 ng/mL
same,concentration at 6 h,"[1]; kidney, Concentration of lenvatinib in kidney, 3 mg/kg p.o., RT9Gy concurrent with lenvatinib",129 ± 50 ng/mL
same,concentration at 6 h,"[1]; kidney, Concentration of lenvatinib in kidney, 3 mg/kg p.o., RT9Gy followed by lenvatinib",223 ± 50 ng/mL
same,concentration at 6 h,"[1]; kidney, Concentration of lenvatinib in kidney, 3 mg/kg p.o., lenvatinib only",175 ± 50 ng/mL
same,concentration at 6 h,"[1]; liver, Concentration of lenvatinib in liver, 3 mg/kg p.o., RT2Gy concurrent with lenvatinib",72 ± 60 ng/mL
same,concentration at 6 h,"[1]; liver, Concentration of lenvatinib in liver, 3 mg/kg p.o., RT2Gy followed by lenvatinib",158 ± 90 ng/mL
same,concentration at 6 h,"[1]; liver, Concentration of lenvatinib in liver, 3 mg/kg p.o., RT9Gy concurrent with lenvatinib",93 ± 50 ng/mL
same,concentration at 6 h,"[1]; liver, Concentration of lenvatinib in liver, 3 mg/kg p.o., RT9Gy followed by lenvatinib",161 ± 70 ng/mL
same,concentration at 6 h,"[1]; liver, Concentration of lenvatinib in liver, 3 mg/kg p.o., lenvatinib only",104 ± 50 ng/mL
same,concentration at 6 h,"[1]; lung, Concentration of lenvatinib in lung, 3 mg/kg p.o., RT2Gy concurrent with lenvatinib",33 ± 40 ng/mL
same,concentration at 6 h,"[1]; lung, Concentration of lenvatinib in lung, 3 mg/kg p.o., RT2Gy followed by lenvatinib",92 ± 30 ng/mL
same,concentration at 6 h,"[1]; lung, Concentration of lenvatinib in lung, 3 mg/kg p.o., RT9Gy concurrent with lenvatinib",42 ± 50 ng/mL
same,concentration at 6 h,"[1]; lung, Concentration of lenvatinib in lung, 3 mg/kg p.o., RT9Gy followed by lenvatinib",75 ± 30 ng/mL
same,concentration at 6 h,"[1]; lung, Concentration of lenvatinib in lung, 3 mg/kg p.o., lenvatinib only",108 ± 40 ng/mL
same,concentration at 6 h,"[1]; spleen, Concentration of lenvatinib in spleen, 3 mg/kg p.o., RT2Gy followed by lenvatinib",73 ± 40 ng/mL
same,concentration at 6 h,"[1]; spleen, Concentration of lenvatinib in spleen, 3 mg/kg p.o., RT9Gy followed by lenvatinib",60 ± 60 ng/mL
same,concentration at 6 h,"[1]; spleen, Concentration of lenvatinib in spleen, 3 mg/kg p.o., lenvatinib only",30 ± 50 ng/mL
same,Concentration of lenvatinib in spleen,"[1]; 3 mg/kg p.o., RT2Gy concurrent with lenvatinib",0 ng/mL
same,Concentration of lenvatinib in spleen,"[1]; 3 mg/kg p.o., RT9Gy concurrent with lenvatinib",0 ng/mL
same,Detection of lenvatinib in the brain,"[1]; 3 mg/kg p.o., with or without RT",not detected
same,Heart concentration decreased compared with the sham group,[1]; [2],36.0%
same,Kidney concentration decreased compared with the sham group,[1]; [2],35.4%
same,Liver concentration decreased compared with the sham group,[1]; [2],30.8%
same,Lung concentration decreased compared with the sham group,[1]; [2],69.4%
same,Spleen concentration decreased compared with the sham group,[1]; [2],100.0%
same,Heart concentration increased compared with the sham group,[1]; RT2Gy followed by lenvatinib,48.0%
same,Kidney concentration increased compared with the sham group,[1]; RT2Gy followed by lenvatinib,31.4%
same,Liver concentration increased compared with the sham group,[1]; RT2Gy followed by lenvatinib,51.9%
same,Lung concentration decreased compared with the sham group,[1]; RT2Gy followed by lenvatinib,15% and 14.8%
same,Spleen concentration increased compared with the sham group,[1]; RT2Gy followed by lenvatinib,143.3%
same,Heart concentration decreased compared with the sham group,[1]; [3],70.0%
same,Kidney concentration decreased compared with the sham group,[1]; [3],26.2%
same,Liver concentration decreased compared with the sham group,[1]; [3],10.6%
same,Lung concentration decreased compared with the sham group,[1]; [3],61.1%
same,Spleen concentration decreased compared with the sham group,[1]; [3],100%
same,Heart concentration increased compared with the sham group,[1]; RT9Gy followed by lenvatinib,56.0%
same,Kidney concentration increased compared with the sham group,[1]; RT9Gy followed by lenvatinib,27.4%
same,Liver concentration increased compared with the sham group,[1]; RT9Gy followed by lenvatinib,54.8%
same,Lung concentration decreased compared with the sham group,[1]; RT9Gy followed by lenvatinib,31% and 30.6%
same,Spleen concentration increased compared with the sham group,[1]; RT9Gy followed by lenvatinib,100%
same,Increase of concentration in the heart,[1]; sequential RT regimen,50%
same,Increase of concentration in the kidneys,[1]; sequential RT regimen,30%
same,Increase of concentration in the liver,[1]; sequential RT regimen,50%
same,Increase of concentration in the spleen,[1]; sequential regimen,more than 100%
same,Oxidative metabolism,CYP3A4,mediated primarily by CYP3A4

# — publication PMC8037784 (Cancers, 2021)
